Among the data in the supplement of paper PMC11368000 are POD vs vehicle values, retold here.

A value given as a limit tells only on which side of the number the result lay.

Holding throughout (conditions): exposure time: 90 min
The subject of assay [1] is 1083 (donor line of iPSC-derived cardiomyocytes). Briefly: POD (EC95) for loss of peak frequency (asystole) vs vehicle; higher = less potent (higher point of departure). As for the experimental part: (§1)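 Human iPSC-derived cardiomyocytes from 16 donors were exposed for 90 min at 37 °C to each PFAS at 0.1, 1, 10 and 100 µM in 0.5% DMSO, 384-well plates. Kinetic Ca2+ flux (FLIPR) and Hoechst nuclei counts were normalised to vehicle wells and fitted with a hierarchical Bayesian Hill model to give donor-specific PODs: EC05 for beat-rate increase or decrease and for decay-to-rise ratio increase (QT proxy), EC95 for peak-frequency loss (asystole), EC10 for total cell number loss. 0.03 µM is the lower bound.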

The subject of assay [2] is 1118 (donor line of iPSC-derived cardiomyocytes). The assay is described as above. How it is done:
as §1

Assay [3] has as its system 11235 (donor line of iPSC-derived cardiomyocytes). The description is as above. As for the experimental part: as §1
Assay [4] concerns 1309 (donor line of iPSC-derived cardiomyocytes). Described as above. How it is done:
as §1

For assay [5], the system named is 1368 (donor line of iPSC-derived cardiomyocytes). The assay is described as above. How it is done:
as §1

Assay [6] concerns 1392 (donor line of iPSC-derived cardiomyocytes). The assay is described as above. How it is done:
as §1

Assay [7] has as its system 1434 (donor line of iPSC-derived cardiomyocytes). Described as above. How it is done:
as §1

The subject of assay [8] is 1516 (donor line of iPSC-derived cardiomyocytes). Described as above. How it is done:
as §1

The subject of assay [9] is 1518 (donor line of iPSC-derived cardiomyocytes). The assay is described as above. How it is done: as §1
For assay [10], the system named is 1531 (donor line of iPSC-derived cardiomyocytes). Described as above. How it is done:
as §1

Assay [11] has as its system 1535 (donor line of iPSC-derived cardiomyocytes). The assay is described as above. How it is done:
as §1

In assay [12] the test system is 1565 (donor line of iPSC-derived cardiomyocytes). The assay is described as above. As for the experimental part:
as §1

For assay [13], the system named is 20032 (donor line of iPSC-derived cardiomyocytes). Described as above. As for the experimental part: as §1
Assay [14] relates to 20084 (donor line of iPSC-derived cardiomyocytes). The assay is described as above. How it is done: as §1
The subject of assay [15] is 30145 (donor line of iPSC-derived cardiomyocytes). Described as above. How it is done: as §1
For assay [16], the system named is 30171 (donor line of iPSC-derived cardiomyocytes). Described as above. How it is done:
as §1

In assay [17] the test system is 1518. Briefly: POD (EC05) for increase in beat frequency (positive chronotrope) vs vehicle; higher = less potent (higher point of departure). The procedure, abridged: (§2)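 Human iPSC-derived cardiomyocytes from 16 donors were cultured 14 days in gelatin-coated 384-well plates and loaded 2 h with fluorescent Ca2+ dye. They were then exposed for 90 min at 37 °C to 0.1, 1, 10 and 100 µM (final, 0.5% DMSO). Ca2+ flux was recorded on a FLIPR Tetra (8 frames/s, 100 s) before and after exposure. Donor-specific points of departure came from hierarchical Bayesian Hill fits to vehicle-normalised beat frequency, decay-to-rise ratio or peak frequency. Thresholds were 5% change, or 95% loss for peak frequency.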

Assay [18] relates to 1531. The assay is described as above. The procedure, abridged:
as §2

The subject of assay [19] is 1535. The assay is described as above. The essentials:
as §2

The test system of assay [20] is 20084. Described as above. The essentials:
as §2

For the compound `O=S(=O)(O)C(F)(F)C(F)(F)C(F)(F)C(F)(F)C(F)(F)C(F)(F)F` [Perfluorohexanesulfonic_acid], the POD vs vehicle in assay [1], in assay [2], in assay [3], in assay [4], in [5] and in assay [6] was more than 100 µM each time. For the same compound, the POD vs vehicle in assay [7], in assay [8], in [9], in assay [10], in assay [11] and in assay [12] was more than 100 µM throughout. In addition, the POD vs vehicle in assay [13], in assay [14], in assay [15], in assay [16], in assay [17] and in assay [18] was more than 100 µM each time. Also, the POD vs vehicle in [19] and in assay [20] was more than 100 µM throughout.
Regarding `O=C(O)C(F)(F)C(F)(F)C(F)(F)C(F)(F)C(F)(F)F` [Perfluorohexanoic_acid], the POD vs vehicle in assay [1], in assay [2], in assay [3], in assay [4], in [5] and in assay [6] was more than 100 µM each time. Besides, the POD vs vehicle in assay [7], in assay [8], in assay [9], in [10], in assay [11] and in assay [12] was more than 100 µM in each case. For the same compound, the POD vs vehicle in assay [13], in [14], in assay [15], in assay [16], in assay [17] and in assay [18] was more than 100 µM throughout. Besides, the POD vs vehicle in assay [19] and in assay [20] was more than 100 µM throughout.
Regarding `O=C(O)C(F)(F)C(F)(F)C(F)(F)C(F)(F)C(F)(F)C(F)(F)C(F)(F)C(F)(F)F` [Perfluorononanoic_acid], the POD vs vehicle was more than 100 µM in assay [1]; 99.4 µM in assay [2]; 31.5 µM in assay [3]; more than 100 µM in assay [4]; more than 100 µM in assay [5]; more than 100 µM in assay [6]. For the same compound, the POD vs vehicle in assay [7], in assay [8], in assay [9], in assay [10], in assay [11] and in assay [12] was more than 100 µM each time. In addition, the POD vs vehicle in assay [13] is more than 100 µM; in assay [14] it was more than 100 µM; in assay [15] it was more than 100 µM; in assay [16], 82.8 µM; in [17], more than 100 µM; in assay [18], more than 100 µM. The POD vs vehicle in [19] and in assay [20] was more than 100 µM each time.
Turning to `NC(=O)C(F)(F)C(F)(F)C(F)(F)C(F)(F)C(F)(F)C(F)(F)C(F)(F)F` [Perfluorooctanamide], the POD vs vehicle in [1], in assay [2], in assay [3], in assay [4], in assay [5] and in assay [6] was more than 100 µM throughout. Moreover, the POD vs vehicle in assay [7], in assay [8], in assay [9], in assay [10], in [11] and in assay [12] was more than 100 µM throughout. Moreover, the POD vs vehicle in assay [13], in assay [14], in [15], in assay [16], in assay [17] and in assay [18] was more than 100 µM each time. For the same compound, the POD vs vehicle in [19] and in assay [20] was more than 100 µM each time.
Regarding `N=C(N)C(F)(F)C(F)(F)C(F)(F)C(F)(F)C(F)(F)C(F)(F)C(F)(F)F` [Perfluorooctanamidine], the POD vs vehicle in assay [1] was more than 100 µM; in assay [2] it was 25.6 µM; in [3] it was more than 100 µM; in assay [4], more than 100 µM; in assay [5], more than 100 µM; in [6] it was more than 100 µM. The POD vs vehicle in [7], in assay [8], in assay [9], in [10], in assay [11] and in assay [12] was more than 100 µM throughout. Besides, the POD vs vehicle in [13], in [14], in assay [15], in [16], in [17] and in assay [18] was more than 100 µM each time. The POD vs vehicle in assay [19] and in assay [20] was more than 100 µM throughout.
